Experimental data: patent US20230167058A1, “GPX4 COMPOUNDS AND COMPOSITIONS AND METHODS OF TREATMENT USING SAME” (THE TRUSTEES OF COLUMBIA UNIVERSITY IN THE CITY OF NEW YORK, priority 2020, published 2023)
pKd: −log10 of the molar value.

Tests used:
GPX4 = biological target: T1, GPX4 (Homo sapiens, UniProt P36969, U73C); assay: Microscale thermophoresis (MST) binding to GPX4; settings: Table 1
T1 sequence (P36969 33-197 U73C): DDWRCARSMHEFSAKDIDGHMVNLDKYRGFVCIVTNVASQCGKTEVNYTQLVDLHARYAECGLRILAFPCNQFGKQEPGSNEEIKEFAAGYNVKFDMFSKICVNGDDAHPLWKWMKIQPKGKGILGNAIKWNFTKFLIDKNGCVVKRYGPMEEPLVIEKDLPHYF
Text: Therefore, we applied a strategy of computer-facilitated design, based on MD simulation (Desmond) and Glide docking (Schrödinger Suite), and experimental high-throughput screening of a lead-optimized compound library of 10,000 compounds (FIGS. 6A-6E). All candidates were first evaluated by thermal denaturation assay and microscale thermophoresis (MST) to validate binding to GPX4 (Table 1). Surface plasmon resonance (SPR) and isothermal titration calorimetry (ITC) were then applied to precisely measure their binding kinetics and affinities, while ^1H-^15N heteronuclear single-quantum coherence (HSQC) NMR spectroscopy informed us of binding sites. We optimized two GPX4-specific activity assays to examine enzymatic inhibitory effects of hit compounds—LC-MS-based substrate/product monitoring and an NADPH-coupled assay. […] Some L880 analogues were also synthesized and tested (Table 2).

GPX4^U46C = biological target: T2, GPX4^U46C (Homo sapiens, UniProt P36969, U73C); assay: Co-crystal structure of GPX4^U46C with inhibitor; type: binding
T2 construct: His6 (N, cleaved yes); made in house; host or cells: E. coli BL21-Gold (DE3), M9 minimal medium with 15NH4Cl
T2 sequence (P36969 33-197 U73C): T1 sequence (P36969 33-197 U73C)
Protocol: GPX4^U46C was pre-incubated with the covalent inhibitors before crystallization using the following specifically optimized condition.
RSL3 and ML162 condition: 50 μM GPX4^U46C incubated with 150 μM RSL3 or ML162 in the reaction buffer (20 mM Tris pH 9.0, 100 mM NaCl, 3 mM TCEP, 1.5% DMSO) at 15° C. for 1 hour before transferring to 4° C. overnight. CDS9 condition: 25 μM GPX4^U46C incubated with 2 mM CDS9 in the reaction buffer (100 mM Tris pH 9.0, 300 mM NaCl, 1 mM TCEP, 2% DMSO) at 37° C. for 2 hours before transferring to 4° C. overnight. TMT10 condition: 25 μM GPX4^U46C incubated with 2 mM TMT10 in the reaction buffer (100 mM Tris pH 9.0, 300 mM NaCl, 2% glycerol, 2% DMSO) at 37° C. for 4 hours before transferring to 4° C. overnight. MAC-5576 condition: 50 μM GPX4^U46C protein was incubated with 500 μM MAC-5576 in the reaction buffer (100 mM Tris pH 9.0, 300 mM NaCl, and 3 mM TCEP, 5% DMSO) at RT for 1 hour before transferring to 4° C. overnight.
After confirmation of covalent binding using intact protein MALDI MS analysis, the protein-inhibitor complex were exchanged into crystallization buffer (10 mM Tris pH 8.0, 5 mM TCEP) and concentrated to 5 mg/ml.

[1] = system: allCys(−) A66C GPX4 in G401 cells; assay: Western blot GPX4 degradation study in G401; type: cell-based; settings: 2 or 4 μM RSL3, 10 h, 10 μM Fer-1
Protocol: For the GPX4 degradation study, G-401 cells were seeded at 800,000 per well in a 60-mm plate and allowed to adhere overnight. Cells were then treated with 10 μM Fer-1 and 0 (vehicle), 2 or 4 μM RSL3 for 10 h. Cells were harvested with trypsin (Invitrogen, 25200-114), pelleted, and lysed with RIPA buffer.
For the quantification of GPX4 protein level for cellular viability and GPX4-specific activity assay, each cell line subject to the cellular viability and GPX4-specific activity was tested by Western Blot in technical duplicates. In particular, cells were harvested with trypsin (Invitrogen, 25200-114), pelleted, and lysed by LCW lysis buffer (0.5% TritonX-100, 0.5% sodium deoxycholate salt, 150 mM NaCl, 20 mM Tris-HCl pH 7.5, 10 mM EDTA, 30 mM Na-pyrophosphate, and cOmplete protease inhibitor cocktail). While part of the cell lysates was blotted for protein quantification, the other part of lysates was used for the GPX4-specific activity assay. For both experiments, cell lysates were blotted and imaged as previously described (Yang et al. 2014). Antibodies used were GPX4 (Abcam, ab125066, 1:250 dilution) and actin (Cell Signaling, D18C11, 1:3,000 dilution). Results were quantified using a LI-COR Odyssey CLx IR scanner, ImageJ, and GraphPad Prism 9.

In the case of COc1cccc2[nH]c(C(=O)n3ccnc3)cc12 [LOC1886], the MST (GPX4) was “positive” and the pKd (GPX4; read-out: MST Kd) was 4.00.

COC(=O)c1ccc([C@@H]2c3[nH]c4ccccc4c3C[C@@H](C(=O)OC)N2C(=O)CCl)cc1 [RSL3, (1S, 3R)-RSL3] was tested, and the “binding site in co-crystal structure” value (GPX4^U46C) was “bind to cys66” and the “RSL3-induced degradation of allCys(−) A66C GPX4” value [1] was “does-dependent degradation of allCys(−) A66C GPX4”.
